{"source": "patent US20090069441A1", "about": "“Motuporamine Mimic Agents” (priority 2006, published 2009)", "key": {"[1]": {"test_system": "Drosophila imaginal leg discs", "assay": "Imaginal disc eversion assay", "assay_type": "cell-based, Drosophila melanogaster", "conditions": "Drosophila melanogaster, 15 hr incubation in Robb's medium", "method": "DihydroMotuporamine C, 4a, was used to develop an imaginal disc assay in Drosophila flies. The imaginal leg discs were collected by microscopic dissection from maggots. […] Inhibition was measured as failure of the disc to fully develop into a fly leg after 15 hr of incubation in Robb's growth medium. This presumably occurs by overactivation of Rho, an important signaling pathway in development. Hyper-stimulation of this pathway is sufficient to block development of the fly leg.\nFly Stocks: 20 female and 5 male wild type Oregon variant of Drosophila melanogaster interbred in blue food medium for 24 hours then flies are removed. Third instar wall-crawling larvae collected then dissected on the sixth day. Flies kept in 25° C. incubation chamber.\nBlue Food Preparation: Standard corn meal medium heated then mixed completely with aqueous 1% Bromophenol Blue. The food medium is cooled for one day or more before use.\nDissection Medium: Ringer's Buffer with 10 uL 0.1% BSA. Ringer's Medium consists of 130 mM NaCl, 5 mM KCl, 1.5 mM CaCl2-2H2O, Stored at room temperature (23° C.), BSA added before dissection.\nCultivation Medium: Minimal Robb's Medium with 10 uL 0.1% BSA. Minimal Robb's Medium consists of 40 mM KCl, 0.4 mM KH2PO4, 40 mM NaCl, 0.4 mM NaH2PO4.7H2O, 1.2 mM MgSO4.7H2O, 1.2 mM MgCl2-6H2O, 1 mM CaCl2-2H2O, 10 mM Glucose, 0.2 mM L-asparagine, 4.0 mM L-glutamine, 0.16 mM Glycine, 0.64 mM L-leucine, 0.32 mM L-proline, 0.16 mM R-Serine, 0.64 mM L-valine. Stored at −25° C. One day before dissection, aliquot defrosted in 4° C. Add BSA then warmed to room temperature (23° C.) before dissection.\n0.1% BSA: 0.1 g BSA fraction V (Sigma#A-9647) in 10 mL distilled H2O, Stored at 4° C.\nDevelopmental Hormone: 1 mg 20-hydroxyecdysone (Sigma #H-5142) in 1 mL 100% Ethanol. Stored at −25° C. Before use, stock is diluted 10× (1 mL added to 9 mL of 100% Ethanol). 10 μL of diluted 20-hydroxyecdysone is added to culture.\nDissection Procedures: Third instar larvae are removed from cultivation bottle with a wetted brush and washed in dH2O to remove food medium clinging to larvae. The cleaned larvae are dissected in Ringer's Medium using forceps. The imaginal discs are washed in fresh Ringer's Medium, and then cultivated with 1 mL of Robb's Medium in 12-well culture plate. Each culture well should have 30˜40 imaginal discs.\nCulturing Procedures: In a larger container, place the 12-well culture plate on a moist towel, then seal the large container. Cultivate at 25° C. for 15 hours. Evaluation: Three categories will be used to grade the eversion of each imaginal disc. Full Eversion—the leg is fully extended from the disc. Partial Eversion—the leg is protruding from the epithelial. No Eversion—no sign of any protrusion."}, "CHO cells": {"test_system": "CHO cells", "assay": "Cytotoxicity in CHO cells", "assay_type": "cell-based, Chinese hamster", "conditions": "for IC50: Cricetulus griseus, CHO", "excerpt": "In terms of Table 1, L1210 cells are mouse leukemia cells and are the gold standard in terms of evaluating polyamine cytotoxicity data due to a plethora of prior data in this cell line for other polyamine structures. Clearly 7a was similar in all respects to 4a (Table 1). […] The lower the Ki value, the higher the affinity of the drug for the polyamine transporter (PAT) on the cell surface. Chinese hamster ovary (CHO) cells and a mutant line without an active PAT (CHO-MG) also evaluated the PAT selectivity of these drugs.\nCHO and CHO-MG studies. Chinese hamster ovary (CHO) cells were chosen along with a mutant cell line (CHO-MG) in order to comment on how the synthetic conjugates gain access to cells. The CHO-MG cell line is polyamine-transport deficient and was isolated after selection for growth resistance to methylglyoxalbis(guanylhydrazone), MGBG, (CH3C[═N—NHC(═NH)NH2]CH[═N—NHC(═NH)NH2]) using a single-step selection after mutagenesis with ethylmethanesulfonate (Mandel et al., J. Cell. Physiol., 1978, 97, 335-344; Byers et al., Biochem. J. 1989, 263, 745-752).\nIn contrast, the parent CHO cell line represents a cell type with high PAT activity. Comparison of conjugate cytotoxicity in these two CHO lines provided an important screen to detect selective conjugate delivery via the PAT. For example, a conjugate with high utilization of the polyamine transporter would be very toxic to CHO cells, but less so to CHO-MG cells. In short, highly-selective PAT ligands should give high (CHO-MG/CHO) IC50 ratios.\nBiological studies. Murine leukemia cells (L1210), CHO and CHO-MG cells were grown in RPMI medium supplemented with 10% fetal calf serum, glutamine (2 mM), penicillin (100 U/mL), streptomycin (50 μg/mL). L-Proline (2 μg/mL) was added to the culture medium for CHO-MG cells. Cells were grown at 37° C. under a humidified 5% CO2 atmosphere. […] Trypan blue staining was used to determine cell viability before the initiation of a cytotoxicity experiment. Cells in early to mid log-phase were used. IC50 determinations. Cell growth was assayed in sterile 96-well microtiter plates (Becton-Dickinson, Oxnard, Calif., USA). L1210 cells were seeded at 5e^4 cells/mL of medium (100 μL/well). CHO and CHO-MG cells were plated at 2e^3 cells/mL. Drug solutions (10 μL per well) of appropriate concentration were added at the time of seeding for L1210 cells and after an overnight incubation for the CHO cell lines. After exposure to the drug for 48 hr, cell growth was determined by measuring formazan formation from 3-(4,5-dimethylthiazol-2-yl)2,5-diphenyltetrazolium using a Titertek Multiskan MCC/340 microplate reader for absorbance (540 nm) measurements (Mosmann, T., J. Immunol. Methods 1983, 65, 55-63)."}}, "note": "Like-named read-outs stand apart in the source and are kept apart here.", "data": [{"smiles": "CCN(CCCNCCCN)Cc1c2ccccc2cc2ccccc12", "note": "[Compound 7a, N-(3-Amino-propyl)-N′-anthracen-9-ylmethyl-N′-ethyl-propane-1,3-diamine]", "values": [{"measurement": "inhibition at 18 µM", "setting": "[1]", "result": 95, "unit": "%"}, {"measurement": "IC50", "setting": "CHO cells; 48 h incubation, new data, read-out: CHO IC50", "result": 5300, "unit": "nM"}, {"measurement": "IC50 Ratio (CHO-MG/CHO), a measure of PAT selectivity", "setting": "CHO cells; new data", "result": 0.8}]}, {"smiles": "NCCCCNCCCCNCc1c2ccccc2cc2ccccc12", "note": "[Compound 6b]", "values": [{"measurement": "inhibition at 18 µM", "setting": "[1]", "result": 97, "unit": "%"}, {"measurement": "IC50", "setting": "CHO cells; absence of AG, 48 h, read-out: CHO IC50 w/o AG", "result": 1740, "unit": "nM"}, {"measurement": "IC50", "setting": "CHO cells; in the presence of AG, 48 h at 37° C., read-out: CHO IC50", "result": 450, "unit": "nM"}, {"measurement": "CHOMG/CHO IC50 ratio in the absence of AG", "setting": "CHO cells; absence of AG", "result": 4}, {"measurement": "IC50 Ratio (CHO-MG/CHO) w/o AG", "setting": "CHO cells; absence of AG", "result": 4}, {"measurement": "IC50 Ratio (CHO-MG/CHO), a measure of PAT selectivity", "setting": "CHO cells; in the presence of AG", "result": 148}, {"measurement": "CHOMG/CHO IC50 ratio", "setting": "CHO cells; with AG", "result": 148}, {"measurement": "IC50 Ratio (CHO-MG/CHO) with AG", "setting": "CHO cells; with AG", "result": 148}]}]}
